The source of these data is patent US20230257761A1, “HERBICIDE RESISTANT PLANT” (INSTITUTE OF GENETICS AND DEVELOPMENTAL BIOLOGY, CHINESE …, priority 2019, published 2023).

What all share (format): in vivo
Assay [1] has as its system rice cultivar Zhonghua 11. Description: Spraying of stems and leaves of regenerated T0 rice plants with Haloxyfop-P. An excerpt:
According to the growth state of the regenerated plants, the T0 generation plants regenerated on the medium were placed in water for 5 to 30 days, and then the plant stems and leaves were directly sprayed with Haloxyfop-P, and the spray concentration range is between 0.1 and 2 times of the recommended concentration of commercial preparations. Four weeks after spraying, a total of 5 surviving mutants, ie, herbicide-resistant mutants, were obtained (FIG. 3).

The test system of assay [2] is rice tissue culture seedlings. Description: Spraying of rice tissue culture seedlings with HPPD herbicide. The following applies: about two weeks after spraying, ⅛ of the field concentration; for leaves and growth of overexpressing positive rice seedlings: rice overexpressing HPPD protein; for leaves of wild-type rice tissue culture seedlings: wild-type rice without resistance. How it is done: The rice tissue culture seedlings overexpressing HPPD protein were used as the positive control, and the wild-type rice plants of the same stage and variety were used as the negative control. Each group of 8 plants was sprayed with different concentration gradients of herbicide: mesotrione or Topramezone. […] The herbicide concentration, that is, ⅛ of the field concentration of mesotrione or Topramezone, is a suitable screening concentration. The rice plants obtained in Example 2 were treated at this screening concentration to obtain herbicide-resistant plants

In assay [3] the test system is wheat (Triticum aestivum L.). Description: Herbicide screening: imazapic added to wheat rooting medium. How it is done: The existing imazapic-resistant wheat plants were used as positive control, and wild-type wheat was used as negative control. Different concentrations of imazapic were added to the wheat rooting medium, and an appropriate screening concentration was found, that is, 1/15 of the concentration of imazapic used in the field.

Consider `C[C@@H](Oc1ccc(Oc2ncc(C(F)(F)F)cc2Cl)cc1)C(=O)O` [Haloxyfop-P], for which the “number of surviving (herbicide-resistant) mutants” value in assay [1] (base-edited T0 plants, four weeks after spraying, 0.1 to 2 times the recommended concentration of commercial preparations) is 5. In addition, the “state of heart leaves of wild-type rice after spraying” value in assay [1] (wild-type Zhonghua No. 11 (WT), FIG. 3) is “dry and dead”.

`Cc1c(C(=O)c2cnn(C)c2O)ccc(S(C)(=O)=O)c1C1=NOCC1` [Topramezone]: in assay [2], the “leaves and growth of overexpressing positive rice seedlings” value was “normal and grew normally”; the “leaves of wild-type rice tissue culture seedlings” value was “turned white and then withered slowly”.

Consider `Cc1cnc(C2=NC(=O)C(C)(C(C)C)N2)c(C(=O)O)c1` (centres unmarked) [imazapic], for which the “rooting of positive control wheat” value in assay [3] (existing imazapic-resistant (overexpression-positive) wheat, rooting medium with 1/15 of the field concentration of imazapic) is “grow roots normally”. The “rooting of wild-type wheat” value in assay [3] (wild-type wheat (negative control), rooting medium with 1/15 of the concentration of imazapic used in the field) is “significantly inhibited”.

As for `CS(=O)(=O)c1ccc(C(=O)C2C(=O)CCCC2=O)c([N+](=O)[O-])c1` [mesotrione], in assay [2], the “leaves and growth of overexpressing positive rice seedlings” value is “normal and grew normally”; the “leaves of wild-type rice tissue culture seedlings” value was “turned white and then withered slowly”.
